The values below come from US6677307B2, “TGF-α polypeptides, functional fragments and methods of use therefor” (Kaleidos Pharma, Inc., priority 1999, dated 2004).

The subject of experiment [1] is immune cells (T cell lineage), mast cells. Briefly: immune cells, mast cells and cytokines in vivo after CP. On the set-up: species or system mice. Conditions: mice after immune-suppression by CP; lymphoid tissue, Peyers Patches, spleen. An excerpt:
The stimulated immune cells were phenotypically identified as CD4 positive T cells and double null CD4 negative CD8 negative T cell progenitors. […] The in vivo activity of TGFα (and the functional peptides of formula I, formula II, formula III, and formula IV) to stimulate early T cell progenitors in the release of TH-1 and TH-2 cytokines and this regulation of immune phenomena. The stimulation of select immune cells, in particular cells of a T cell lineage, was seen consistently in the mice who received CP and TGF-α57 in lymphoid tissue, Peyers Patches and the spleen. Further, recruitment of help via CD4 cells in some cases boosts immune system function in general.
This is a parallel activity that is in addition to the gastrointestinal anti-inflammatory activity and prevention of mucositis of TGFα (and the functional peptides of formula I, formula II, formula III, and […]) described herein.

Experiment [2] deals with lymphoid tissues such as spleen and the large intestine. Briefly: histological examination of lymphoid tissues after TGF-α57. It counts as in vivo. Conditions: mice; 10-50 μg/kg ip 3 days or 10-50 μg/kg iv 2 days or 10 μg/kg sc 3-5 days; vs untreated mice. An excerpt: In still another embodiment, a TGF-α polypeptide, a related polypeptide, mimetic, or functional fragment thereof having TGF-α activity are useful as vaccine adjuvants to increase mucosal humoral immunity. […] Such T cell progenitors positioned in the gastrointestinal tract represent a reservoir for CD4 helper cells needed against mucosal directed vaccine production mediated by priming with exogenous antigen. The T cell progenitor cells appear to be double null and thus naive. Accordingly, the T cell progenitor cell response to TGF-α and TGF-α mimetics provides the utility for such compounds to provide a strong mucosal immunity response and usefulness as a mucosal vaccine and as a universal stem cell adjuvant.

Another experiment relates to kidney. The experiment is described as follows: glycerol acute kidney toxicity, blood BUN and creatinine. It counts as in vivo, CD-1 mice. Conditions: 50% glycerol 10 ml/kg im; 1 μg ip; two treatments. The protocol:
In another set of in vivo experiments, glycerol (50% (v/v) aqueous solution, Sigma) was used as the cytotoxic agent for an acute cytotoxic agent. Six CD-1 mice were weighed and injected into both hind limbs im with 10 ml/kg of 50% (v/v) glycerol, one half into each hind limb im. Three of the mice were controls and injected with 0.1 ml of 0.9% saline and the other three injected ip with 0.1 ml of 10 μg/ml stock of TGF-α (57 aa polypeptide) as a 1 μg dose. The mice were reinjected with the same does of saline or TGFα the next day and another equal dose of 50% glycerol. After two treatments, the mice were sacrificed and blood BUN and creatinine was measured and the kidneys examined. The average creatinine values were 1.75±0.613 for controls and 1.51±0.940 for treated mice. The average BUN values were […] for controls and 165.3±75.6 for treated mice.

Consider “TGF-α57: 57 amino acid polypeptide of formula VI: Ser-Leu-Ser-Leu-Pro-Ala-Met-Human TGFα”, for which, in experiment [1], the “proliferation of select immune cells (T cell lineage)” value is on record as “stimulation of proliferation of select immune cells”. In addition, in experiment [2], the “T cell progenitor cells (histology)” value is listed as “increase in T cell progenitor cells”. Besides, in the experiment on kidney, the “average BUN” value came to 165.3±75.6 and the average creatinine came out at 1.51±0.940.
